Results reported in ChEMBL document CHEMBL3272312, “Proteinase inhibitors. I. Inhibitors of elastase” (J Med Chem, 1977).
In brackets after ≈: the same amount, converted by molar mass. Activity calls are given as the source filed them. No cut-off for these calls is given here. *1 amine or outer side, *2 acyl side, *3 side chain or, on linkers, in order; H or OH if unused. Where a SMILES comes first, the peptide text is derived from it. [ ]: non-standard residue; d: D form. AzaAla = CN(N[*:1])C(=O)[*:2]; Lac = C[C@H](O)C(=O)O

Tests used:
[1] = target: T1, Pancreatic elastase (Sus scrofa) (UniProt P08419+P00772); assay: Inhibition of porcine pancreatic elastase assessed as Ac-Ala-Ala-Pro-Ala-p-nitroanilide conversion to p-nitroaniline by spectrophotometric analysis; format: protein assay
Pancreatic elastase = Pancreatic elastase (Sus scrofa, UniProt P08419+P00772); assay: Noncompetitive inhibition of porcine pancreatic elastase using Ac-Ala-Ala-Pro-Ala-p-nitroanilide as substrate by Dixon plot analysis; format: protein assay
[2] = target: T2, Neutrophil elastase (Homo sapiens) (UniProt P08246)
T2 sequence (whole entry): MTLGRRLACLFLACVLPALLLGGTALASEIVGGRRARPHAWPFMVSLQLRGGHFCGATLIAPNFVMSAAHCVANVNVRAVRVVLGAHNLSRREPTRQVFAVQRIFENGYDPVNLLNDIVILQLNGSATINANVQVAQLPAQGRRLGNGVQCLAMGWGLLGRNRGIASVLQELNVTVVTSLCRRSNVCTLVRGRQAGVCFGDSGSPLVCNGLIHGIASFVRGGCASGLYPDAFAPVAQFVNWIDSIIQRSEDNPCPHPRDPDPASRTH
Description: Inhibition of human granulocyte elastase assessed as Ac-Ala-Ala-Pro-Ala-p-nitroanilide conversion to p-nitroaniline by spectrophotometric analysis

[3] = target: T1, Pancreatic elastase (Sus scrofa); assay: Activity at porcine pancreatic elastase assessed as compound hydrolysis at 1 mg incubated at room temperature up to 24 hrs by TLC analysis; format: protein assay
[4] = target: T1, Pancreatic elastase (Sus scrofa); assay: Activity at porcine pancreatic elastase assessed as compound hydrolysis at 1 mg incubated at room temperature after 5 mins by TLC analysis; format: protein assay
[5] = target: T1, Pancreatic elastase (Sus scrofa); assay: Reversible inhibition of porcine pancreatic elastase assessed as enzyme recovery; format: protein assay
[6] = target: T1, Pancreatic elastase (Sus scrofa); assay: Reversible inhibition of porcine pancreatic elastase assessed as enzyme recovery by sephadex G-25 rapid passage assay; format: protein assay

CNC(=O)[C@H](C)OC(=O)N(C)NC(=O)[C@@H]1CCCN1C(=O)[C@H](C)NC(=O)[C@H](C)NC(C)=O
ID50 [1]: 0.4 µg/mL (≈ 0.876 µM)
Ki (Pancreatic elastase): 6.5 ×10⁻⁷ M

CC(=O)N[C@@H](C)C(=O)N[C@@H](C)C(=O)N1CCC[C@H]1C(=O)NN(C)C(=O)O[C@@H](C)C(=O)N(C)N
ID50 [1]: 2 µg/mL (≈ 4.24 µM)
ID50 [2]: 50 µg/mL (≈ 106 µM)

C[C@H](NC(=O)OCc1ccccc1)C(=O)N[C@@H](C)C(=O)N1CCC[C@H]1C(=O)NN(C)C(=O)Oc1ccc([N+](=O)[O-])cc1
ID50 [1]: 1 µg/mL (≈ 1.71 µM)

CCOC(=O)[C@H](Cc1ccccc1)NC(=O)[C@H](C)OC(=O)N(C)NC(=O)[C@@H]1CCCN1C(=O)[C@H](C)NC(=O)[C@H](C)NC(C)=O
ID50 [1]: 2 µg/mL (≈ 3.23 µM)

CCOC(=O)[C@H](C)OC(=O)N(C)NC(=O)[C@@H]1CCCN1C(=O)[C@H](C)NC(=O)[C@H](C)NC(C)=O
ID50 [1]: 1 µg/mL (≈ 2.12 µM)
Activity [3]: inactive

CCOC(=O)[C@H](C)OC(=O)[C@H](C)NC(=O)[C@@H]1CCCN1C(=O)[C@H](C)NC(=O)[C@@H]1CCCN1C(C)=O (Ac-PAPA[Lac]-OEt)
inhibition [1]: inactive
Activity [4]: Active

CCOC(=O)[C@H](Cc1ccccc1)OC(=O)N(C)NC(=O)[C@@H]1CCCN1C(=O)[C@H](C)NC(=O)[C@H](C)NC(C)=O
ID50 [1]: 2 µg/mL (≈ 3.65 µM)

CCOC(=O)[C@H](C)OC(=O)[C@H](C)OC(=O)[C@@H]1CCCN1C(=O)[C@H](C)NC(=O)[C@H](C)NC(C)=O (Ac-AAP[Lac][Lac]-OEt)
ID50 [1]: 33 µg/mL (≈ 70 µM)

CCOC(=O)[C@H](C)OC(=O)N(C)NC(=O)[C@H](CC(C)C)NC(=O)[C@H](C)NC(=O)[C@H](C)NC(C)=O
ID50 [1]: 9 µg/mL (≈ 18.5 µM)

CCOC(=O)N(C)NC(=O)[C@@H]1CCCN1C(=O)[C@H](C)NC(=O)[C@@H]1CCCN1C(C)=O
ID50 [1]: 60 µg/mL (≈ 141 µM)

CCOC(=O)[C@H](C)OC(=O)N(C)NC(=O)[C@H](CC(C)C)NC(=O)[C@H](C)NC(=O)[C@@H]1CCCN1C(C)=O
ID50 [1]: 15 µg/mL (≈ 29.2 µM)

CCOC(=O)NNC(=O)[C@@H]1CCCN1C(=O)[C@H](C)NC(=O)[C@H](C)NC(=O)OC(C)(C)C
inhibition [1]: inactive

CCOC(=O)N(C)NC(=O)[C@@H]1CCCN1C(=O)[C@H](C)NC(=O)[C@H](C)NC(=O)OCc1ccccc1
ID50 [1]: 30 µg/mL (≈ 61 µM)

CC(=O)N[C@@H](C)C(=O)N[C@@H](C)C(=O)N1CCC[C@H]1C(=O)NN(C)C(=O)O[C@@H](C)C(=O)Nc1ccccc1
ID50 [1]: 0.4 µg/mL (≈ 0.771 µM)
Ki (Pancreatic elastase): 4.5 ×10⁻⁷ M

CCOC(=O)[C@H](C)OC(=O)N(C)NC(C)=O
inhibition [1]: inactive

CC(=O)N[C@@H](C)C(=O)N[C@@H](C)C(=O)N1CCC[C@H]1C(=O)NN(C)C(=O)O[C@@H](C)C(=O)OCc1ccccc1
ID50 [1]: 0.5 µg/mL (≈ 0.937 µM)

CC(=O)N[C@@H](C)C(=O)N[C@@H](C)C(=O)N1CCC[C@H]1C(=O)NN(C)C(=O)O[C@@H](C)C(=O)NCc1ccccc1
ID50 [1]: 0.3 µg/mL (≈ 0.563 µM)
Ki (Pancreatic elastase): 8.5 ×10⁻⁷ M

CCOC(=O)[C@H](C)OC(=O)[C@H](C)NC(=O)[C@@H]1CCCN1C(=O)[C@H](C)NC(=O)[C@H](C)NC(C)=O (Ac-AAPA[Lac]-OEt)
ID50 [1]: 167 µg/mL (≈ 355 µM)
Activity [4]: Active

CCOC(=O)C(C)OC(=O)N(C)NC(=O)[C@@H]1CCCN1C(=O)[C@H](C)NC(=O)[C@@H]1CCCN1C(C)=O (stereo partly drawn)
ID50 [1]: 4.5 µg/mL (≈ 9.04 µM)

CCOC(=O)[C@H](C)OC(=O)N(C)NC(=O)[C@H](C)NC(C)=O
inhibition [1]: inactive

CC(=O)N[C@@H](C)C(=O)N[C@@H](C)C(=O)N1CCC[C@H]1C(=O)NN(C)C(=O)O[C@@H](C)C(N)=O
ID50 [1]: 0.4 µg/mL (≈ 0.904 µM)
Ki (Pancreatic elastase): 5 ×10⁻⁷ M

CC(=O)N[C@@H](C)C(=O)N[C@@H](C)C(=O)N1CCC[C@H]1C(=O)NN(C)C(=O)O[C@@H](C)C(=O)O
ID50 [1]: 110 µg/mL (≈ 248 µM)

CCOC(=O)[C@H](C)OC(=O)[C@H](C)OC(=O)N(C)NC(=O)[C@@H]1CCCN1C(=O)[C@H](C)NC(=O)[C@H](C)NC(C)=O
ID50 [1]: 1.5 µg/mL (≈ 2.76 µM)

CC(=O)N1CCC[C@H]1C(=O)N[C@@H](C)C(=O)N1CCC[C@H]1C(=O)NN(C)C(=O)OC(C)C(N)=O (mixture of isomers)
ID50 [1]: 0.3 µg/mL
Activity [3]: inactive
inhibition [5]: inactive
inhibition [6]: Active
Ki (Pancreatic elastase): 4.5 ×10⁻⁷ M

CCOC(=O)[C@H](C)OC(=O)N(C)NC(=O)[C@@H]1CCCN1C(=O)[C@H](C)NC(=O)[C@@H]1CCCN1C(C)=O
ID50 [1]: 6 µg/mL (≈ 12.1 µM)

CCOC(=O)N(C)NC(=O)[C@H](C)NC(C)=O
inhibition [1]: inactive

CCOC(=O)NNC(=O)[C@@H]1CCCN1C(=O)[C@H](C)NC(=O)[C@@H]1CCCN1C(C)=O
inhibition [1]: inactive

CCOC(=O)NNC(=O)[C@@H]1CCCN1C(=O)[C@H](C)NC(=O)[C@H](C)NC(C)=O
inhibition [1]: inactive

CCOC(=O)[C@H](C)OC(=O)[C@H](C)OC(=O)[C@@H]1CCCN1C(=O)[C@H](C)NC(=O)[C@@H]1CCCN1C(C)=O (Ac-PAP[Lac][Lac]-OEt)
ID50 [1]: 167 µg/mL (≈ 336 µM)

CCOC(=O)[C@H](C)OC(=O)[C@H](C)OC(=O)N(C)NC(=O)[C@@H]1CCCN1C(=O)[C@H](C)NC(=O)[C@@H]1CCCN1C(C)=O
ID50 [1]: 1.5 µg/mL (≈ 2.63 µM)

CCOC(=O)[C@H](C)NC(=O)N(C)NC(=O)[C@@H]1CCCN1C(=O)[C@H](C)NC(=O)[C@H](C)NC(C)=O (Ac-AAP[AzaAla]A-OEt)
ID50 [1]: 100 µg/mL (≈ 213 µM)

CCOC(=O)N(C)NC(=O)[C@@H]1CCCN1C(=O)[C@H](C)NC(=O)[C@H](C)NC(C)=O
ID50 [1]: 20 µg/mL (≈ 50.1 µM)

CC(=O)N[C@@H](C)C(=O)N[C@@H](C)C(=O)N1CCC[C@H]1C(=O)NN(C)C(=O)O[C@@H](C)C(=O)NN
ID50 [1]: 0.25 µg/mL (≈ 0.546 µM)
Ki (Pancreatic elastase): 6.5 ×10⁻⁷ M

CCOC(=O)[C@H](C)NC(=O)N(C)NC(=O)[C@@H]1CCCN1C(=O)[C@H](C)NC(=O)[C@@H]1CCCN1C(C)=O (Ac-PAP[AzaAla]A-OEt)
inhibition [1]: inactive

CCOC(=O)N(C)NC(=O)[C@@H]1CCCN1C(=O)[C@H](C)NC(=O)[C@H](C)NC(=O)OC(C)(C)C
ID50 [1]: 90 µg/mL (≈ 197 µM)
